Measurements as given in patent US4792554A, “Pyridine compounds, pharaceutical compositions, their use in allergy therapy” (priority 1985, dated 1988).

How the values were obtained:
[1] = Normal weight gain of rats in a subchronic 14-day experiment; assay type: in vivo, rat; settings: high oral doses
Source text: Finally, the compound of Example 3 had no effect, even at high oral doses, on the normal weight gain of rats in a subchronic 14-day experiment. It is evident from this that the compounds of the formula I have no appetite-stimulating action in contrast to many other antihistamines.

[2] = Acute toxicity, mortality within 7 days after single i.p. administration to NMRI mice; settings: in vivo, ip, mouse i.p.
Method: The LD50 values were determined by the standard method of the mortality occurring within 7 days after a single intraperitoneal (i.p.) administration to NMRI mice (NMRI=Naval Medical Research Institute).

[3] = system: airway obstruction induced by histamine aerosol; test: Plethysmographic investigation on conscious guinea pigs with airway obstruction induced by inhalation of histamine aerosol; assay type: in vivo, guinea pig; settings: oral, 0.3% strength histamine aerosol
[4] = system: asthma induced by histamine; test: Inhibition by inhalation of allergic asthma induced by histamine in conscious guinea pigs; assay type: in vivo, guinea pig; settings: 0.3% strength aerosol
[5] = system: leukotriene D4; test: Inhibition of leukotriene D4-induced spasm in isolated guinea pig trachea; settings: leukotriene D4 10 pg/ml
[6] = system: rat peritoneal mast cells; test: Histamine release from isolated rat mast cells induced by calcium ionophore A 23 187; assay type: cell-based; settings: Mast cell, 0.25 h, 15 min incubation, A 23 187 10^-6 g/ml, read-out: Inhibitory action in the Ca ionophore test IC50
Method: (b) Histamine release from isolated rat mast celss induced by calcium ionophore A 23 187 […] […] For this purpose, 10^4 cells were suspended in Clicks/RPMI (50:50, vol.; supplied by Serva, Heidelberg) tissue culture medium, incubated with the test substance for 15 minutes, and then treated with calcium ionophore A 23 187 at a concentration of 10^-6 g/ml. The released histamine was determined by high-pressure liquid chromatography (HPLC). The measure used for the inhibitory action was the IC50 which represents the molar concentration (mol/l) at which the induced histamine release was decreased to one half that of cells which had not been pretreated with a product. In this context, IC50 values above 10^-5 mol/l are regarded as therapeutically irrelevant.

[7] = system: mast cells; test: Passive cutaneous anaphylaxis (PCA) in the rat, inhibition of mediator release (protective effect on mast cells); assay type: in vivo; settings: Mast cell
Source text: (a) Passive cutaneous anaphylaxis (PCA) in the rat (PCA test) Passive cutaneous anaphylaxis is an IgE-mediated allergy of the immediate type (type I). In this model, antibodies bound to mast cells and basophilic granulocytes react with an intravenously administered antigen with release of excessive amount of the allergy mediators. The histamine which is released during this can be visualized by simultaneous application of Evans blue to the shaven flanks of the rats. Photometric evaluation of the color intensity was used to determine, by means of the percentage inhibition of mediator release compared with untreated control animals, the protective effect on mast cells of the compound according to the invention after oral administration.

[8] = system: bradykinin; test: Antagonistic action towards bradykinin: inhibition of bradykinin-induced bronchospasm in anesthetized guinea pigs (Konzett-Rössler); assay type: in vivo, guinea pig; settings: Cavia porcellus, iv, anesthetized guinea pigs, dose reducing induced spasm to one half; read-out: Inhibitory action towards bradykinin (ED50)
Method: (§1) 1. Antagonistic action towards the allergy mediators (on anesthetized guinea pigs)
(§2) The test substances were administered intravenously in aqueous solution injected in a volume of 1 ml/kg.

[9] = system: platelet activating factor (PAF); test: Antagonism of PAF-induced bronchospasm in anesthetized rats; assay type: in vivo, rat; settings: Rattus norvegicus, Platelet; intravenous, anesthetized rats
Method: (§3) The compounds of the formula I and their salts additionally show a pronounced inhibitory action on platelet activating factor (PAF) and the leukotrienes, which are likewise released as spasmogenic mediators from the mast cells during the course of the immediate anaphylactic reaction. It was possible to antagonize the bronchospasm induced in anesthetized rats by administration of PAF by, for example, intravenous administration of the compound of Example 3 with a ED50 of 1-3 mg/kg. The said products of the state of the art, such as oxatomide, ketotiphen and terfenadine, have no action in this test. The contractions induced by calcium ionophore A 23 187 in isolated strips of lung and the isolated trachea of guinea pigs were inhibited by, for example, the compound of Example 3 with an IC50 of 0.1-0.3 μg/ml. Since calcium ionophore A 23 187 stimulates 5-lipoxygenase and thus promotes the formation of spasmogenic leukotrienes, a possible interpretation of the result of this experiment is that the compounds according to the invention are potent leukotriene inhibitors.

[10] = system: histamine; test: Antagonistic action towards histamine: inhibition of histamine-induced bronchospasm in anesthetized guinea pigs (Konzett-Rössler); assay type: in vivo, guinea pig; settings: Cavia porcellus, iv, anesthetized guinea pigs, dose reducing induced spasm to one half; read-out: Inhibitory action towards histamine (ED50)
Method: as §1, §2

[11] = system: isolated strips of lung and the isolated trachea of guinea pigs; test: Inhibition of contractions induced by calcium ionophore A 23 187 in isolated strips of lung and isolated trachea of guinea pigs; settings: guinea pig
Method: as §3

## Cc1cc(NCCN2CCN(C(c3ccccc3)c3ccccc3)CC2)c([N+](=O)[O-])c(C)n1.Cl.Cl.Cl [Example 3, 2,6-dimethyl-3-nitro-4-[(2-{4-diphenylmethyl-1-piperazinyl}ethyl)amino]pyridine trihydrochloride]
[1]
  effect on normal weight gain: no effect
[2]
  LD50 at 168 h: 300 to 600 mg/kg
[3]; Cavia porcellus
  ED50: 3.15 mg/kg
[3]
  time after administration to maximum effect: 30 min
[4]
  suppression of experimentally induced asthma attacks: substantial suppression
[5]
  concentration inhibiting leukotriene D4-induced spasm by 50%: 3 to 6 µg/mL
[6]
  IC50: 10 nM
[7]; oral dose 12.5 mg/kg
  inhibition in vivo at 12.5 mg/kg: 26%
[7]; oral dose 25 mg/kg
  inhibition in vivo at 25 mg/kg: 61%
[7]; oral dose 50 mg/kg
  inhibition in vivo at 50 mg/kg: 85%
[8]
  ED50: 0.15 mg/kg
[9]
  ED50: 1 to 3 mg/kg
[10]
  ED50: 0.3 mg/kg
[11]
  IC50, contractions induced by calcium ionophore A 23 187: 0.1 to 0.3 µg/mL
